Marks after values point to notes of the source that are not given here.
Molecular target: T1, KRAS G12C 1-169, his-tagged protein, GDP-loaded (Homo sapiens, UniProt P01116, G12C)
T1 construct: KRAS G12C 1-169, his-tagged protein, GDP-loaded
Assay: Biochemical assay: covalent binding (% modification) to KRAS G12C by mass spectrometry
Description: Test compounds were prepared as 10 mM stock solutions in DMSO (Fisher cat# BP-231-100). KRAS G12C 1-169, his-tagged protein, GDP-loaded was diluted to 2 μm in buffer (20 mM Hepes, 150 mM NaCl, 1 mM MgCl2). Compounds were tested for activity as follows:
Compounds were diluted to 50× final test concentration in DMSO in 96-well storage plates. Compound stock solutions were vortexed before use and observed carefully for any sign of precipitation. Dilutions were as follow: • 1. For 100 μM final compound concentration, compounds were diluted to 5000 μM (5 μl 10 mM compound stock+5 μl DMSO and mixed well by pipetting. • 2. For 30 μM final compound concentration, compounds were diluted to 1500 μM (3 μl 10 mM compound stock+17 μl DMSO) and mixed well by pipetting. • 3. For 10 μM final compound concentration, compounds were diluted to 500 μM (2 μl 10 mM compound stock+38 μl DMSO) and mixed well by pipetting. 49 μl of the stock protein solution was added to each well of a 96-well PCR plate (Fisher cat#1423027). 1 μl of the diluted 50× compounds were added to appropriate wells in the PCR plate using 12-channel pipettor. Reactions were mixed carefully and thoroughly by pipetting up/down with a 200·1 multi-channel pipettor. […] 5·1 of 2% formic acid (Fisher cat# A117) in DI H2O was then added to each well followed by mixing with a pipette. The plate was then resealed with aluminum seal and stored on dry ice until analyzed as described below.
The above described assays were analyzed by mass spectrometry according to one of the following two procedures:
The MS instrument is set to positive polarity, 2 GHz resolution, and low mass (1700) mode and allowed to equilibrate for 30 minutes. The instrument is then calibrated, switched to acquisition mode and the appropriate method loaded.
After another 30 minute equilibration time, a blank batch (i.e., buffer) is run to ensure equipment is operating properly. The samples are thawed at 37° C. for 10 minutes, briefly centrifuged, and transfer to the bench top. Wells A1 and H12 are spiked with 1 uL 500 uM internal standard peptide, and the plates centrifuged at 2000×g for 5 minutes. The method is then run and masses of each individual well recorded.
The masses (for which integration data is desired) for each well are pasted into the platemap and exported from the analysis. Masses for the internal standards are exported as well. The data at 50 ppm is extracted for the +19 charge state, and identity of well A1 is assigned using the internal standard spike and integrated. Peak data is exported as a TOF list and the above steps are repeated individually, for the +20, 21, 22, 23, 24, and 25 charge states.
The masses and peak intensities of KRAS G12C protein species were measured using a Dionex RSLCnano system (Thermo Scientific) connected to a Q Exactive Plus mass spectrometer (Thermo Scientific).
[…] of sample was each loaded onto a Aeris™ 3.6 μm WIDEPORE C4 200 Å, LC Column 50×2.1 mm column maintained at 40° C. at a flow rate of 600 μl min^1 with 20% Solvent A (0.1% formic acid in H2O) and 80% Solvent B (0.1% formic acid in acetonitrile). The liquid chromatography conditions were 20% solvent B for 1 min, 20% to 60% solvent B for 1.5 min, 60% to 90% solvent for 0.5 min, 90% solvent B for 0.2 min, 90% to 20% solvent B for 0.2 min, and then equilibrated for 1.6 min before the following sample injection. The flow rate was maintained at 600 μl min^1 throughout the sample analysis.
The mass spectrometer was operated in profile mode at a resolution of 17500, 5 microscans, using 50 msec max injection time and an AGC target of 1e6, and a full mass range from 800-1850 m/z was recorded. The HCD trapping gas was optimized for maximum sensitivity for intact proteins. The ionization method was electrospray ionization, which used a spray voltage of 4 kV, sheath gas flow set to 50 au, auxiliary gas flow set to 10 au and sweep gas flow set to 1 au. […]

[1] = binding activity determined at 2 hours
[2] = binding activity determined at 6 hours
[3] = binding activity determined at 4 hours

| Compound | Binding % [1] | Binding % [2] | Binding % [3] | other results |
| --- | --- | --- | --- | --- |
| C=CC(=O)N1CC(n2cnc3c(Cl)c(-c4cc(O)cc5ccccc45)c(F)cc3c2=O)C1 [Compound 10, 3-(1-acryloylazetidin-3-yl)-8-chloro-6-fluoro-7-(3-hydroxynaphthalen-1-yl)quinazolin-4(3H)-one] | +++; (+++ indicates binding activity 50% or greater) | +++^‡ (+++ indicates binding activity 50% or greater) | – | – |
| C=CC(=O)N1CC(n2cnc3c(F)c(-c4c(O)cccc4F)c(Cl)cc3c2=O)C1 [Compound 4, 3-(1-acryloylazetidin-3-yl)-6-chloro-8-fluoro-7-(2-fluoro-6-hydroxyphenyl)quinazolin-4(3H)-one] | – | – | ++^† (++ indicates binding activity from 5% up to 50%) | – |
| C=CC(=O)N1CC(n2cnc3c(F)c(-c4c(C)ccc5cn[nH]c45)c(Cl)cc3c2=O)C1 [Compound 8, 3-(1-acryloylazetidin-3-yl)-6-chloro-8-fluoro-7-(6-methyl-1H-indazol-7-yl)quinazolin-4(3H)-one] | – | ++^‡ (++ indicates binding activity from 5% up to 50%) | – | – |
| C=CC(=O)Nc1cnc2c(F)c(-c3c(O)cccc3F)c(Cl)cc2c1N1CCN(C(C)=O)CC1 [Compound 3, N-(4-(4-acetylpiperazin-1-yl)-6-chloro-8-fluoro-7-(2-fluoro-6-hydroxyphenyl)quinolin-3-yl)acrylamide] | – | – | ++^† (++ indicates binding activity from 5% up to 50%) | – |
| C=CC(=O)N1CC(n2cnc3c(F)cc(-c4ccccc4O)cc3c2=O)C1 [Compound 9, 3-(1-acryloylazetidin-3-yl)-8-fluoro-6-(2-hydroxyphenyl) quinazolin-4(3H)-one] | – | +^‡ (+ indicates binding activity up to 5%) | – | – |
| C=CC(=O)NC1CC(n2cnc3c(F)c(-c4c(O)cccc4F)c(Cl)cc3c2=O)C1 (stereo not shown) [Compound 2, N-(3-(6-chloro-8-fluoro-7-(2-fluoro-6-hydroxyphenyl)-4-oxoquinazolin-3(4H)-yl)cyclobutyl)acrylamide] | – | – | ++^† (++ indicates binding activity from 5% up to 50%) | covalently bind to KRAS G12C, extent (% of protein in the well covalently bound to test compound) (time and concentration not given): greater than 30% |
| C=CC(=O)N1CC(n2cnc3c(Cl)c(-c4cc(O)cc5ccccc45)c(N)cc3c2=O)C1 [Compound 12, 3-(1-acryloylazetidin-3-yl)-6-amino-8-chloro-7-(3-hydroxynaphthalen-1-yl)quinazolin-4(3H)-one] | ++ (++ indicates binding activity from 5% up to 50%) | – | – | – |
| C=CC(=O)N1CC(n2cnc3c(F)c(-c4cc(O)cc5ccccc45)c(Cl)cc3c2=O)C1 [Compound 7, 3-(1-acryloylazetidin-3-yl)-6-chloro-8-fluoro-7-(3-hydroxynaphthalen-1-yl)quinazolin-4(3H)-one] | +++; (+++ indicates binding activity 50% or greater) | +++^‡ (+++ indicates binding activity 50% or greater) | – | – |
| C=CC(=O)N1CC(n2cnc3c(F)c(-c4cc(O)ccc4Cl)c(Cl)cc3c2=O)C1 [Compound 6, 3-(1-acryloylazetidin-3-yl)-6-chloro-7-(2-chloro-5-hydroxyphenyl)-8-fluoroquinazolin-4(3H)-one] | ++; (++ indicates binding activity from 5% up to 50%) | – | +++^† (+++ indicates binding activity 50% or greater) | – |
| C=CC(=O)N1CC(n2cnc3c(Cl)c(-c4cc(O)cc5ccccc45)cc(O)c3c2=O)C1 [Compound 14, 3-(1-acryloylazetidin-3-yl)-8-chloro-5-hydroxy-7-(3-hydroxynaphthalen-1-yl)quinazolin-4(3H)-one] | +++ (+++ indicates binding activity 50% or greater) | – | – | – |
| C=CC(=O)N1CC(n2cnc3cc(-c4c(O)cccc4F)ccc3c2=O)C1 [Compound 5, 3-(1-acryloylazetidin-3-yl)-7-(2-fluoro-6-hydroxyphenyl) quinazolin-4(3H)-one] | – | ++^‡ (++ indicates binding activity from 5% up to 50%) | – | – |
| C=CC(=O)N1CCCC(n2cnc3c(F)c(-c4c(O)cccc4F)c(Cl)cc3c2=O)C1 (stereo not shown) [Compound 1, 3-(1-acryloylpiperidin-3-yl)-6-chloro-8-fluoro-7-(2-fluoro-6-hydroxyphenyl)quinazolin-4(3H)-one] | – | – | ++^† (++ indicates binding activity from 5% up to 50%) | – |

From patent publication US10351550B2, “Substituted quinazoline compounds and methods of use thereof” (Araxes Pharma LLC, priority 2015, dated 2019)
